Measured values from patent publication US20230143604A1, “QW DOSING OF GIP RECEPTOR AGONIST PEPTIDE COMPOUNDS AND USES THEREOF” (TAKEDA PHARMACEUTICAL COMPANY LIMITED, priority 2020, published 2023).
Starred links: 1 amine or outer side, 2 acyl side, 3 side chain; linkers in the order of their positions; H or OH if unused. Non-standard residues stand in square brackets, D forms with d. Residues, ends and D or L forms follow the SMILES beside them. Groups on a side chain read outwards from the residue. *: point of attachment. C20 diacid = O=C(O)CCCCCCCCCCCCCCCCCCC(=O)*; C18 diacid = O=C(O)CCCCCCCCCCCCCCCCC(=O)*; γGlu = O=C(O)[C@H](CCC(=O)[*:2])N[*:1]; NMeY = CN[C@@H](Cc1ccc(O)cc1)C(=O)O; AEEA = NCCOCCOCC(=O)O; Aib = CC(C)(N)C(=O)O

Assay: physchem
Method in brief: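 Solubility at pH 7.4 determined by stepwise addition of 200 mM phosphate buffer in 100 μL increments to 3 mg peptide, mixing briefly each time, until no insoluble material remained, then measured by liquid chromatography.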

SMILES	solubility (pH 7.4) [mg/mL]	solubility (pH 7.4, aqueous buffer) [mg/mL]
CC[C@H](C)[C@H](NC(=O)[C@H](CO)NC(=O)[C@H](Cc1ccc(O)cc1)NC(=O)[C@H](CC(=O)O)NC(=O)[C@H](CO)NC(=O)[C@@H](NC(=O)[C@H](Cc1ccccc1)NC(=O)[C@@H](NC(=O)CNC(=O)[C@H](CCC(=O)O)NC(=O)C(C)(C)NC(=O)[C@@H](N)Cc1ccc(O)cc1)[C@@H](C)O)[C@@H](C)CC)C(=O)N[C@@H](C)C(=O)N[C@@H](CC(C)C)C(=O)N[C@@H](CC(=O)O)C(=O)N[C@@H](CCCCN)C(=O)NC(C)(C)C(=O)N[C@@H](C)C(=O)N[C@@H](CCC(N)=O)C(=O)N[C@@H](CCCNC(=N)N)C(=O)N[C@@H](CCCCNC(=O)COCCOCCNC(=O)COCCOCCNC(=O)CC[C@H](NC(=O)CC[C@H](NC(=O)CCCCCCCCCCCCCCCCC(=O)O)C(=O)O)C(=O)O)C(=O)N[C@@H](Cc1ccccc1)C(=O)N[C@H](C(=O)N[C@@H](CCC(=O)O)C(=O)N[C@@H](Cc1c[nH]c2ccccc12)C(=O)N[C@@H](CC(C)C)C(=O)N[C@@H](CC(C)C)C(=O)N[C@@H](C)C(=O)N[C@@H](CCC(N)=O)C(=O)N[C@@H](CCCNC(=N)N)C(=O)NCC(=O)O)C(C)C [Compound 156] (H-Y[Aib]EGTFISDYSIALDK[Aib]AQRK([AEEA-AEEA-γGlu-γGlu-C18 diacid])FVEWLLAQRG-OH)	≥ 15	≥ 30
CC[C@H](C)[C@H](NC(=O)[C@H](CO)NC(=O)[C@H](Cc1ccc(O)cc1)NC(=O)[C@H](CC(=O)O)NC(=O)[C@H](CO)NC(=O)[C@@H](NC(=O)[C@H](Cc1ccccc1)NC(=O)[C@@H](NC(=O)CNC(=O)[C@H](CCC(=O)O)NC(=O)C(C)(C)NC(=O)[C@@H](N)Cc1ccc(O)cc1)[C@@H](C)O)[C@@H](C)CC)C(=O)N[C@@H](C)C(=O)NC(C)(C)C(=O)N[C@@H](CC(=O)O)C(=O)N[C@@H](CCCCN)C(=O)N[C@@H](C)C(=O)N[C@@H](C)C(=O)N[C@@H](CCC(N)=O)C(=O)N[C@@H](CCC(N)=O)C(=O)N[C@@H](CCCCNC(=O)COCCOCCNC(=O)COCCOCCNC(=O)CC[C@H](NC(=O)CC[C@H](NC(=O)CCCCCCCCCCCCCCCCC(=O)O)C(=O)O)C(=O)O)C(=O)N[C@@H](Cc1ccccc1)C(=O)N[C@H](C(=O)N[C@@H](CCC(=O)O)C(=O)N[C@@H](Cc1c[nH]c2ccccc12)C(=O)N[C@@H](CC(C)C)C(=O)N[C@@H](CC(C)C)C(=O)N[C@@H](C)C(=O)N[C@@H](CCC(N)=O)C(=O)N[C@@H](CCCNC(=N)N)C(=O)NCC(=O)O)C(C)C [Compound 157] (H-Y[Aib]EGTFISDYSIA[Aib]DKAAQQK([AEEA-AEEA-γGlu-γGlu-C18 diacid])FVEWLLAQRG-OH)	≥ 15	≥ 30
CC[C@H](C)[C@H](NC(=O)[C@H](CO)NC(=O)[C@H](Cc1ccc(O)cc1)NC(=O)[C@H](CC(=O)O)NC(=O)[C@H](CO)NC(=O)[C@@H](NC(=O)[C@H](Cc1ccccc1)NC(=O)[C@@H](NC(=O)CNC(=O)[C@H](CCC(=O)O)NC(=O)C(C)(C)NC(=O)[C@@H](N)Cc1ccc(O)cc1)[C@@H](C)O)[C@@H](C)CC)C(=O)N[C@@H](C)C(=O)NC(C)(C)C(=O)N[C@@H](CC(=O)O)C(=O)N[C@@H](CCCCN)C(=O)N[C@@H](C)C(=O)N[C@@H](C)C(=O)N[C@@H](CCC(N)=O)C(=O)N[C@@H](C)C(=O)N[C@@H](CCCCNC(=O)COCCOCCNC(=O)COCCOCCNC(=O)CC[C@H](NC(=O)CC[C@H](NC(=O)CCCCCCCCCCCCCCCCC(=O)O)C(=O)O)C(=O)O)C(=O)N[C@@H](Cc1ccccc1)C(=O)N[C@H](C(=O)N[C@@H](CCC(=O)O)C(=O)N[C@@H](Cc1c[nH]c2ccccc12)C(=O)N[C@@H](CC(C)C)C(=O)N[C@@H](CC(C)C)C(=O)N[C@@H](C)C(=O)N[C@@H](CCC(N)=O)C(=O)N[C@@H](CCCNC(=N)N)C(=O)NCC(=O)O)C(C)C [Compound 158] (H-Y[Aib]EGTFISDYSIA[Aib]DKAAQAK([AEEA-AEEA-γGlu-γGlu-C18 diacid])FVEWLLAQRG-OH)	≥ 15	≥ 30
CC[C@H](C)[C@H](NC(=O)[C@H](Cc1ccccc1)NC(=O)[C@@H](NC(=O)CNC(=O)[C@H](CCC(=O)O)NC(=O)C(C)(C)NC(=O)[C@H](Cc1ccc(O)cc1)NC)[C@@H](C)O)C(=O)N[C@@H](CO)C(=O)N[C@@H](CC(=O)O)C(=O)N[C@@H](Cc1ccc(O)cc1)C(=O)N[C@@H](CO)C(=O)N[C@H](C(=O)NC(C)(C)C(=O)N[C@@H](CC(C)C)C(=O)N[C@@H](CC(=O)O)C(=O)N[C@@H](CCCNC(=N)N)C(=O)NC(C)(C)C(=O)N[C@@H](C)C(=O)N[C@@H](CCC(N)=O)C(=O)NC(C)(C)C(=O)N[C@@H](CCCCNC(=O)COCCOCCNC(=O)COCCOCCNC(=O)CC[C@H](NC(=O)CC[C@H](NC(=O)CCCCCCCCCCCCCCCCCCC(=O)O)C(=O)O)C(=O)O)C(=O)N[C@@H](Cc1ccccc1)C(=O)N[C@H](C(=O)N[C@@H](CC(N)=O)C(=O)N[C@@H](Cc1c[nH]c2ccccc12)C(=O)N[C@@H](CC(C)C)C(=O)N[C@@H](CC(C)C)C(=O)N[C@@H](C)C(=O)N[C@@H](CCC(N)=O)C(=O)N[C@@H](CCCNC(=N)N)C(=O)NCC(=O)O)C(C)C)[C@@H](C)CC [Compound 159] (H-[NMeY][Aib]EGTFISDYSI[Aib]LDR[Aib]AQ[Aib]K([AEEA-AEEA-γGlu-γGlu-C20 diacid])FVNWLLAQRG-OH)	≥ 15	≥ 30
CC[C@H](C)[C@H](NC(=O)[C@H](CO)NC(=O)[C@H](Cc1ccc(O)cc1)NC(=O)[C@H](CC(=O)O)NC(=O)[C@H](CO)NC(=O)[C@@H](NC(=O)[C@H](Cc1ccccc1)NC(=O)[C@@H](NC(=O)CNC(=O)[C@H](CCC(=O)O)NC(=O)C(C)(C)NC(=O)[C@@H](N)Cc1ccc(O)cc1)[C@@H](C)O)[C@@H](C)CC)C(=O)N[C@@H](C)C(=O)N[C@@H](CC(C)C)C(=O)N[C@@H](CC(=O)O)C(=O)N[C@@H](CCCCN)C(=O)N[C@H](C(=O)N[C@@H](CCCCNC(=O)COCCOCCNC(=O)COCCOCCNC(=O)CC[C@H](NC(=O)CCCCCCCCCCCCCCCCC(=O)O)C(=O)O)C(=O)N[C@@H](CCC(N)=O)C(=O)NC(C)(C)C(=O)N[C@@H](CC(=O)O)C(=O)N[C@@H](Cc1ccccc1)C(=O)N[C@H](C(=O)N[C@@H](CCC(=O)O)C(=O)N[C@@H](Cc1c[nH]c2ccccc12)C(=O)N[C@@H](CC(C)C)C(=O)N[C@@H](CC(C)C)C(=O)N[C@@H](C)C(=O)N[C@@H](CCC(N)=O)C(=O)N[C@@H](CCCNC(=N)N)C(=O)NCC(=O)O)C(C)C)[C@@H](C)CC [Compound 160] (H-Y[Aib]EGTFISDYSIALDKIK([AEEA-AEEA-γGlu-C18 diacid])Q[Aib]DFVEWLLAQRG-OH)	≥ 15	≥ 30
CC[C@H](C)[C@H](NC(=O)[C@H](CO)NC(=O)[C@H](Cc1ccc(O)cc1)NC(=O)[C@H](CC(=O)O)NC(=O)[C@H](CO)NC(=O)[C@@H](NC(=O)[C@H](Cc1ccccc1)NC(=O)[C@@H](NC(=O)CNC(=O)[C@H](CCC(=O)O)NC(=O)C(C)(C)NC(=O)[C@@H](N)Cc1ccc(O)cc1)[C@@H](C)O)[C@@H](C)CC)C(=O)N[C@@H](C)C(=O)N[C@@H](CC(C)C)C(=O)N[C@@H](CC(=O)O)C(=O)N[C@@H](CCCCN)C(=O)N[C@@H](C)C(=O)N[C@@H](CCCCNC(=O)COCCOCCNC(=O)COCCOCCNC(=O)CC[C@H](NC(=O)CCCCCCCCCCCCCCCCC(=O)O)C(=O)O)C(=O)N[C@@H](CCC(N)=O)C(=O)NC(C)(C)C(=O)N[C@@H](CC(=O)O)C(=O)N[C@@H](Cc1ccccc1)C(=O)N[C@H](C(=O)N[C@@H](CCC(=O)O)C(=O)N[C@@H](Cc1c[nH]c2ccccc12)C(=O)N[C@@H](CC(C)C)C(=O)N[C@@H](CC(C)C)C(=O)N[C@@H](C)C(=O)N[C@@H](CCC(N)=O)C(=O)N[C@@H](CCCNC(=N)N)C(=O)NCC(=O)O)C(C)C [Compound 161] (H-Y[Aib]EGTFISDYSIALDKAK([AEEA-AEEA-γGlu-C18 diacid])Q[Aib]DFVEWLLAQRG-OH)	≥ 15	≥ 30
CC[C@H](C)[C@H](NC(=O)[C@H](CO)NC(=O)[C@H](Cc1ccc(O)cc1)NC(=O)[C@H](CC(=O)O)NC(=O)[C@H](CO)NC(=O)[C@@H](NC(=O)[C@H](Cc1ccccc1)NC(=O)[C@@H](NC(=O)CNC(=O)[C@H](CCC(=O)O)NC(=O)C(C)(C)NC(=O)[C@@H](N)Cc1ccc(O)cc1)[C@@H](C)O)[C@@H](C)CC)C(=O)N[C@@H](C)C(=O)N[C@@H](CC(C)C)C(=O)N[C@@H](CC(=O)O)C(=O)N[C@@H](CCCCN)C(=O)NC(C)(C)C(=O)N[C@@H](CCCCNC(=O)COCCOCCNC(=O)COCCOCCNC(=O)CC[C@H](NC(=O)CCCCCCCCCCCCCCCCC(=O)O)C(=O)O)C(=O)N[C@@H](CCC(N)=O)C(=O)N[C@@H](C)C(=O)N[C@@H](CC(=O)O)C(=O)N[C@@H](Cc1ccccc1)C(=O)N[C@H](C(=O)N[C@@H](CCC(=O)O)C(=O)N[C@@H](Cc1c[nH]c2ccccc12)C(=O)N[C@@H](CC(C)C)C(=O)N[C@@H](CC(C)C)C(=O)N[C@@H](C)C(=O)N[C@@H](CCC(N)=O)C(=O)N[C@@H](CCCNC(=N)N)C(=O)NCC(=O)O)C(C)C [Compound 162] (H-Y[Aib]EGTFISDYSIALDK[Aib]K([AEEA-AEEA-γGlu-C18 diacid])QADFVEWLLAQRG-OH)	≥ 15	≥ 30
CC[C@H](C)[C@H](NC(=O)[C@H](CO)NC(=O)[C@H](Cc1ccc(O)cc1)NC(=O)[C@H](CC(=O)O)NC(=O)[C@H](CO)NC(=O)[C@@H](NC(=O)[C@H](Cc1ccccc1)NC(=O)[C@@H](NC(=O)CNC(=O)[C@H](CCC(=O)O)NC(=O)C(C)(C)NC(=O)[C@@H](N)Cc1ccc(O)cc1)[C@@H](C)O)[C@@H](C)CC)C(=O)N[C@@H](C)C(=O)N[C@@H](CC(C)C)C(=O)N[C@@H](CC(=O)O)C(=O)N[C@@H](CCCCN)C(=O)NC(C)(C)C(=O)N[C@@H](CCCCNC(=O)COCCOCCNC(=O)COCCOCCNC(=O)CC[C@H](NC(=O)CCCCCCCCCCCCCCCCC(=O)O)C(=O)O)C(=O)N[C@@H](CCC(N)=O)C(=O)N[C@@H](C)C(=O)N[C@@H](CC(N)=O)C(=O)N[C@@H](Cc1ccccc1)C(=O)N[C@H](C(=O)N[C@@H](CCC(=O)O)C(=O)N[C@@H](Cc1c[nH]c2ccccc12)C(=O)N[C@@H](CC(C)C)C(=O)N[C@@H](CC(C)C)C(=O)N[C@@H](C)C(=O)N[C@@H](CCC(N)=O)C(=O)N[C@@H](CCCNC(=N)N)C(=O)NCC(=O)O)C(C)C [Compound 163] (H-Y[Aib]EGTFISDYSIALDK[Aib]K([AEEA-AEEA-γGlu-C18 diacid])QANFVEWLLAQRG-OH)	≥ 15	≥ 30
